The melting point is the temperature, or range, at which the solid turns liquid. On to `N#C/C(=C\C1CCCCC1)C(=O)Nc1ccc2c(c1)S(=O)(=O)C=C2` [RMF-1-20, 2-Cyano-3-cyclohexyl-N-(1,1-dioxo-1H-1λ^6-benzo[b]thiophen-6-yl)acrylamide], for which the melting point is 180 to 181 °C.

Turning to `COc1cccc(/C=C(\C#N)C(=O)Nc2ccc3c(c2)S(=O)(=O)C=C3)c1` [RMF-1-35, 2-Cyano-N-(1,1-dioxo-1H-1λ^6-benzo[b]thiophen-6-yl)-3-(3-methoxyphenyl)acrylamide], the melting point lay in the range of 245 to 246 °C.

Compound `N#C/C(=C\c1cccnc1Cl)C(=O)Nc1ccc2c(c1)S(=O)(=O)C=C2` [RMF-1-25, 3-(2-Chloro-pyridin-3-yl)-2-cyano-N-(1,1-dioxo-1H-1λ^6-benzo[b]thiophen-6-yl)acrylamide] yielded a melting point of 251 to 252 °C.

The compound `N#C/C(=C\c1cccc(F)c1)C(=O)Nc1ccc2c(c1)S(=O)(=O)C=C2` [RMF-1-31, 2-Cyano-N-(1,1-dioxo-1H-1λ^6-benzo[b]thiophen-6-yl)-3-(3-fluorophenyl)acrylamide] returned a melting point of 245 to 246 °C.

`N#C/C(=C\c1ccccc1[N+](=O)[O-])C(=O)Nc1ccc2c(c1)S(=O)(=O)C=C2` [RMF-1-36, 2-Cyano-N-(1,1-dioxo-1H-1λ^6-benzo[b]thiophen-6-yl)-3-(2-nitrophenyl)acrylamide] came in with a melting point of 254 to 255 °C.

The compound `COc1ncccc1/C=C(\C#N)C(=O)Nc1ccc2c(c1)S(=O)(=O)C=C2` [RMF-1-27, 2-Cyano-N-(1,1-dioxo-1H-1λ^6-benzo[b]thiophen-6-yl)-3-(2-methoxy-pyridin-3-yl)acrylamide] yielded a melting point of 261 to 262 °C.

For `N#C/C(=C\c1ccccn1)C(=O)Nc1ccc2c(c1)S(=O)(=O)C=C2` [HJC-5-90, 2-Cyano-N-(1,1-dioxo-1H-1λ^6-benzo[b]thiophen-6-yl)-3-pyridin-2-yl-acrylamide], the melting point fell in the range of 234 to 235 °C.

The compound `N#C/C(=C\c1ccc([N+](=O)[O-])cc1)C(=O)Nc1ccc2c(c1)S(=O)(=O)C=C2` [RMF-1-37, 2-Cyano-N-(1,1-dioxo-1H-1λ^6-benzo[b]thiophen-6-yl)-3-(4-nitrophenyl)acrylamide] gave a melting point of 272 to 273 °C.

The compound `N#C/C(=C\c1cccc(O)c1)C(=O)Nc1ccc2c(c1)S(=O)(=O)C=C2` [RMF-1-10, 2-Cyano-N-(1,1-dioxo-1H-1λ^6-benzo[b]thiophen-6-yl)-3-(3-hydroxyphenyl)acrylamide] gave a melting point of 262 to 263 °C.

For the compound `N#C/C(=C\c1ccc(O)cc1)C(=O)Nc1ccc2c(c1)S(=O)(=O)C=C2` [RMF-1-11, 2-Cyano-N-(1,1-dioxo-1H-1λ^6-benzo[b]thiophen-6-yl)-3-(4-hydroxyphenyl)acrylamide], the melting point is 306 to 307 °C.

In turn, `COc1ccc(/C=C(\C#N)C(=O)Nc2ccc3c(c2)S(=O)(=O)C=C3)cc1` [RMF-1-13, 2-Cyano-N-(1,1-dioxo-1H-1λ^6-benzo[b]thiophen-6-yl)-3-(4-methoxyphenyl)acrylamide] returned a melting point of 275 to 276 °C.

With `N#C/C(=C\c1ccc(F)cc1)C(=O)Nc1ccc2c(c1)S(=O)(=O)C=C2` [RMF-1-29, 2-Cyano-N-(1,1-dioxo-1H-1λ^6-benzo[b]thiophen-6-yl)-3-(4-fluorophenyl)acrylamide], the melting point fell in the range of 271 to 272 °C.

The compound `N#C/C(=C\c1ccncc1)C(=O)Nc1ccc2c(c1)S(=O)(=O)C=C2` [RMF-1-23, 2-Cyano-N-(1,1-dioxo-1H-1λ^6-benzo[b]thiophen-6-yl)-3-pyridin-4-yl-acrylamide] gave a melting point of 288 to 289 °C.

Consider `COc1cc(/C=C(\C#N)C(=O)Nc2ccc3c(c2)S(=O)(=O)C=C3)cc(OC)c1OC` [RMF-1-38, 2-Cyano-N-(1,1-dioxo-1H-1λ^6-benzo[b]thiophen-6-yl)-3-(3,4,5-trimethoxyphenyl)acrylamide], for which the melting point fell in the range of 224 to 225 °C.

In the case of `N#C/C(=C\c1cccnc1F)C(=O)Nc1ccc2c(c1)S(=O)(=O)C=C2` [RMF-1-24, 2-Cyano-N-(1,1-dioxo-1H-1λ^6-benzo[b]thiophen-6-yl)-3-(2-fluoro-pyridin-3-yl)acrylamide], the melting point was 262 to 263 °C.

For the compound `N#C/C(=C\c1c(F)cccc1F)C(=O)Nc1ccc2c(c1)S(=O)(=O)C=C2` [HJC-5-91, 2-Cyano-3-(2,6-difluorophenyl)-N-(1,1-dioxo-1H-1λ^6-benzo[b]thiophen-6-yl)acrylamide], the melting point lay in the range of 253 to 254 °C.

Take `COc1ccc(/C=C(\C#N)C(=O)Nc2ccc3c(c2)S(=O)(=O)C=C3)cn1` [RMF-1-28, 2-Cyano-N-(1,1-dioxo-1H-1λ^6-benzo[b]thiophen-6-yl)-3-(6-methoxy-pyridin-3-yl)acrylamide]: the melting point was in the range of 255 to 256 °C.

Regarding `N#C/C(=C\c1ccccc1Cl)C(=O)Nc1ccc2c(c1)S(=O)(=O)C=C2` [RMF-1-33, 3-(2-Chlorophenyl)-2-cyano-N-(1,1-dioxo-1H-1λ^6-benzo[b]thiophen-6-yl)acrylamide], the melting point lay in the range of 242 to 243 °C.

The compound `N#C/C(=C\c1ccccc1O)C(=O)Nc1ccc2c(c1)S(=O)(=O)C=C2` [RMF-1-9, 2-Cyano-N-(1,1-dioxo-1H-1λ^6-benzo[b]thiophen-6-yl)-3-(2-hydroxyphenyl)acrylamide] displayed a melting point of 284 to 285 °C.

`N#C/C(=C\c1ccccc1Br)C(=O)Nc1ccc2c(c1)S(=O)(=O)C=C2` [RMF-1-7, 3-(2-Bromophenyl)-2-cyano-N-(1,1-dioxo-1H-1λ^6-benzo[b]thiophen-6-yl)acrylamide] registered a melting point of 226 to 227 °C.

For `Cc1cc(C)c(/C=C(\C#N)C(=O)Nc2ccc3c(c2)S(=O)(=O)C=C3)c(C)c1` [RMF-1-14, 2-Cyano-N-(1,1-dioxo-1H-1λ^6-benzo[b]thiophen-6-yl)-3-(2,4,6-trimethylphenyl)acrylamide], the melting point is 255 to 256 °C.

`N#C/C(=C\c1ccc(Br)cc1)C(=O)Nc1ccc2c(c1)S(=O)(=O)C=C2` [RMF-1-8, 3-(4-Bromophenyl)-2-cyano-N-(1,1-dioxo-1H-1λ^6-benzo[b]thiophen-6-yl)acrylamide] displayed a melting point of 289 to 290 °C.

For `CN(C)c1ccc(/C=C(\C#N)C(=O)Nc2ccc3c(c2)S(=O)(=O)C=C3)cc1` [RMF-1-16, 2-Cyano-3-(4-dimethylaminophenyl)-N-(1,1-dioxo-1H-1λ^6-benzo[b]thiophen-6-yl)acrylamide], the melting point is 279 to 280 °C.
